Assay results reported in patent US20250302039A1, “USE OF N-SUBSTITUTED PYRROLIDONES TO PROMOTE THE PENETRATION OF AGROCHEMICAL ACTIVE AGENTS” (priority 2016, published 2025).

Experiments:
Format in all cases: physicochemical
[1] = Miscibility of N-(n-butyl)-2-pyrrolidone with solvents; settings: with water, propylene glycol, polyethylene glycol, dimethylamide, Solvesso® 200 ND, alkylated vegetable oil or mineral oils
Excerpt: In addition, the N-substituted pyrrolidones of the formula (I) can also be combined advantageously with various water-immiscible solvents and may serve as cosolvents in solvent-containing formulations, for example in emulsion concentrates (EC), oil dispersions (OD), suspoemulsions (SE) and microemulsions (ME).

[2] = Solutions of active ingredients in N-(n-butyl)-2-pyrrolidone; settings: solvent N-(n-butyl)-2-pyrrolidone; based on the total weight of the solution
[3] = Microscopy studies: crystallization behavior after 18 hours of drying; settings: 1 g/L; 1 μL on silanized glass slide; 18 hours of drying at 25° C., 53% relative air humidity; 400× magnification
Excerpt: The following solutions 1) to 6) were produced:
Solution of 1 g of rynaxypyr in one liter of a mixture of acetone and distilled water at a weight ratio of acetone:distilled water of 30:70.
Solution of 1 g of rynaxypyr in one liter of a mixture of N-(n-butyl)-2-pyrrolidone and distilled water at a weight ratio of N-(n-butyl)-2-pyrrolidone:distilled water of 30:70.
Solution of 1 g of emamectin benzoate in one liter of a mixture of acetone and distilled water at a weight ratio of acetone:distilled water of 30:70.
Solution of 1 g of emamectin benzoate in one liter of a mixture of N-(n-butyl)-2-pyrrolidone and distilled water at a weight ratio of N-(n-butyl)-2-pyrrolidone:distilled water of 30:70.
Solution of 1 g of abamectin in one liter of a mixture of acetone and distilled water at a weight ratio of acetone:distilled water of 30:70.
Solution of 1 g of abamectin in one liter of a mixture of N-(n-butyl)-2-pyrrolidone and distilled water at a weight ratio of N-(n-butyl)-2-pyrrolidone:distilled water of 30:70.
The procedure as described hereinafter was followed with solutions 1) to 6) (see steps A) to C)): • A) 1 μL of the above-described solutions 1) to 6) in each case was applied to silanized glass microscope slides. • B) The solutions were left to stand on the microscope slides at a temperature of 25° C. and 53% relative air humidity over 18 hours, in the course of which drying took place. • C) Thereafter, the microscope slides were assessed and photos were taken at the original edge of the droplets with 400-fold magnification.
The photos for the active agrochemical ingredient abamectin are shown in FIG. 2A and FIG. 2B, those for the active agrochemical ingredient rynaxapyr in FIG. 3A and FIG. 3B, and those for the active agrochemical ingredient emamectin benzoate in FIG. 4A and FIG. 4B.

| Compound | miscibility with solvents [1] | amount of active ingredient in solutions prepared with N-(n-butyl)-2-pyrrolidone [2] | crystallization behavior in N-(n-butyl)-2-pyrrolidone/water (30:70) solution [3] | crystallization behavior in acetone/water (30:70) solution [3] |
| --- | --- | --- | --- | --- |
| CCCCN1CCCC1=O [N-(n-Butyl)-2-pyrrolidone, N-(n-butyl)-2-pyrrolidone] | miscible in all ratios |  |  |  |
| OC(Cc1ccccc1Cl)(Cn1nc[nH]c1=S)C1(Cl)CC1 (centres unmarked) [prothioconazole] |  | greater than 35 % by weight |  |  |
| CNC(=O)c1cc(Cl)cc(C)c1NC(=O)c1cc(Br)nn1-c1ncccc1Cl [rynaxypyr] |  |  | remaining dissolved | crystallized out |
| abamectin |  |  | remaining dissolved | crystallized out |
| emamectin benzoate |  |  | remaining dissolved | crystallized out |
